{"source": "patent US20220409510A1", "about": "“Polypeptides And Methods For Improving Skin Conditions” (Interk Peptide Therapeutics Limited, priority 2018, published 2022)", "key": {"[1]": {"biological_target": "T1, Human rheumatoid synovial fibroblast MMP-1 (Homo sapiens, UniProt P03956)", "T1 construct": "endogenous in cells; host or cells: human rheumatoid synovial fibroblasts (native proenzyme isolated from these cells)", "T1 sequence (P03956 100-469)": "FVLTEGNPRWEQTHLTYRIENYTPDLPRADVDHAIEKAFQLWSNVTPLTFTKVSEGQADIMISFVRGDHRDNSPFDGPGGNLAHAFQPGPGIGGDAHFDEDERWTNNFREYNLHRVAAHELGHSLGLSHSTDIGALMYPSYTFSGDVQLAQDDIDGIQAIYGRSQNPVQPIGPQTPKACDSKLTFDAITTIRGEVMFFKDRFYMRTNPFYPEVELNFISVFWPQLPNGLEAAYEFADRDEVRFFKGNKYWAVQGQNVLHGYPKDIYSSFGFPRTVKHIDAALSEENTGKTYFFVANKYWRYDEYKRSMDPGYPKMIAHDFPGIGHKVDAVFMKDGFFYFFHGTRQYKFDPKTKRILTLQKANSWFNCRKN", "experiment": "MMP-1 activity in vitro (fluorogenic substrate)", "type": "biochemical", "conditions": "5, 10, 800 and 1000 μM; 8 nM activated enzyme; pH 7.2; FIG. 16", "description": "The effect of the polypeptide IK34720 (SEQ ID NO: 3) on MMP-1 activity was evaluated using the following protocol.\nHuman rheumatoid synovial fibroblast MMP-1 proenzyme, activated with APMA for 60 minutes at 37° C., was used as an active enzyme. The polypeptide IK34720 (SEQ ID NO: 3) at a concentration of 5 μM. 10 μM 800 μM and 1000 μM was pre-incubated with 8 nM activated enzyme in modified MOPS buffer pH 7.2 for 60 minutes at 37° C. The reaction was initiated by addition of […] Mca-Pro-Leu-Gly-Leu-Dap-Ala-Arg followed by a 2 hour incubation period. Determination of the amount of Mca-Pro-Leu-Gly formed was read spectrofluorimetrically at 340 nm/400 nm."}, "[2]": {"system": "CPDs in human skin explants", "experiment": "CPD formation in human skin explants after UV-irradiation", "type": "cell-based", "description": "Human skin removed at elective surgery was cleaned, dissected and cut into pieces of approx. 5 mm×5 mm. Each piece was placed in a well of a 96 well plate, with individual plates prepared to assess the effects 3 hrs post treatment. All samples were performed in triplicate for each treatment. Skin was subjected to UV-radiation from solar-simulated UV source for 1.5 h (UVR), or non-irradiation (SHAM). Given that human skin is thicker than mouse skin, human skin explants were exposed to a radiation dose three times higher than that used for mouse skin, i.e., 20 J/cm2 versus 7 J/cm2, respectively, and the output spectrum of the laboratory solar simulator has previously been reported (Rybchyn MS et al, J Invest Dermatol. 2018 May; 138(5):1146-1156) and treated immediately after with a vehicle control, Calcitriol (1 nM) or the polypeptide IK34720 (SEQ ID NO: 3) at concentrations of 50 μM, 250 μM or 500 uM.\nSamples harvested at 3 hrs were fixed, section, stained and quantified as described in Example 5."}, "dermal fibroblasts": {"system": "dermal fibroblasts", "experiment": "TBARS lipid peroxidation assay in UV irradiated dermal fibroblasts", "type": "cell-based", "conditions": "highest concentration (5 μM) of peptide; FIG. 19", "description": "The ability of the polypeptide RSKAKNPLYRRRRRRRRR to alter UV-induced oxidative damage of cell-derived lipids was examined using the TBARS thiobarbituric acid-reactive substances (TBARS) lipid peroxidation assay.\nAfter irradiation or sham-irradiation of dermal fibroblasts, supernatants (900 μL) were collected. In brief, 90 μL of butylated hydroxytoluene (2% w/w in ethanol) was added and samples kept frozen (−20° C.) until the TBARS assay. Petri dishes were washed twice with 1 mL of HBSS, cells scraped in 600 μL of water and 60 μL of 0.5% aqueous Triton X100 added to this solution, for protein determination carried out by the Lowry method (Lowry OH et al, J. Biol. Chem., 1951, 193:265-275). TBARS were fluorometrically assayed as described (Morlière P et al, Biochim. Biophys. Acta, 1991, 1084:261-268). Briefly, thawing samples were heated in the presence of thiobarbituric acid in acidic conditions, and TBARS extracted with 1-butanol and fluorometrically quantified (λexc=515 nm and λem=550 nm). Tetraethoxypropane, which quantitatively yields the malondialdehyde-thiobarbituric acid adduct in the assay conditions, was used for calibration. TBARS values, expressed in malondialdehyde (MDA) equivalents, were normalized to the cell protein for each Petri dish. Each TBARS determination was performed in triplicate (e.g., with three Petri dishes per data point)."}, "MMP1": {"system": "MMP1", "experiment": "MMP1 expression in human skin explants after UV-irradiation (immunohistochemistry)", "type": "cell-based", "description": "The effect of the polypeptide IK34720 (SEQ ID NO: 3) on MMP-1 activity in human skin was evaluated using the following protocol.\nFIGS. 17 and 18 illustrate the effect of the polypeptide IK34720 (SEQ ID NO: 3) on MMP1 expression, in accordance with the following protocol.\nHuman skin (2× human explant tissues) removed at elective surgery was cleaned, dissected and cut into pieces of approx. 5mm×5mm. Each piece was placed in a well of a 96 well plate, with individual plates prepared to assess the effects 3 hrs post treatment. Skin was subjected to UV-radiation from solar-simulated UV source for 1.5 h (UVR), or non-irradiation (SHAM), and treated immediately after with a vehicle control, Calcitriol (1 nM) or the polypeptide IK34720 (SEQ ID NO: 3) at concentrations of 50 μM, 250 μM or 500 uM. In FIG. 17, IK50, IK250 and IK500 as μM concentrations refers to 15 μg, 75 μg and 150 μg of IK34720 per 120 μL culture medium/explant, respectively.\nSamples harvested at 3 hrs were fixed, sectioned, immunohistochemically stained for MMP1 and quantified for MMP1 expression, by expressing epidermal area stained for MMP1 as a function of total epidermal area examined."}}, "data": [{"sequence": "RSKAKNPLYRRRRRRRRR [IK34720, 18-residue polypeptide: … with a C-terminal polyarginine region of 8 arginines]", "values": [{"measurement": "MMP-1 activity", "setting": "[1]", "value": "inhibits MMP-1 activation in a dose dependent manner"}, {"measurement": "percentage of CPD positive cells", "setting": "[2]; 500 μM, 3 hrs, two individuals, FIG. 13A and B", "value": "statistically significantly reduced"}, {"measurement": "cells having CPDs (stained cells)", "setting": "[2]; 3 hrs post irradiation/treatment, Calcitriol 1 nM, IK34720 50, 250 or 500 uM, FIG. 12", "value": "fewer stained cells"}, {"measurement": "significant difference in TRS (TBA reactive substances) between Sham and UV irradiation", "setting": "dermal fibroblasts", "value": "not seen"}, {"measurement": "percentage of MMP1 positive cells", "setting": "MMP1; 500 μM, 3 hrs, FIG. 18", "value": "statistically significantly reduced"}, {"measurement": "cells staining for MMP-1", "setting": "MMP1; 3 hrs post irradiation/treatment, Calcitriol 1 nM, IK34720 50, 250 or 500 uM, FIG. 17", "value": "fewer stained cells"}]}]}
